Test results from patent publication US20190211020A1 (Agency for Science, Technology and Research, priority 2012, published 2019).
“Also recorded” adds a separate entry of the source. Like-named read-outs stand apart in the source and are kept apart here.

How the values were obtained:
[1] = test system: beta-catenin transcriptional activity; conditions: background; cited from earlier work
[2] = test system: patient-derived BC cells in NSG mice; conditions: 40 mg/kg/d CGP or 5 mg/kg/d dasatinib for three weeks; read at 16 weeks; cited from earlier work
[3] = test system: active nuclear beta-catenin in BC GMPs; conditions: background; cited from earlier work
[4] = test system: normal cord blood CD34+ cells; conditions: background; cited from earlier work
[5] = test system: TNF production by macrophage; conditions: stimulation with TLR agonists; background; cited from earlier work
[6] = test system: eIF4E phosphorylation in cerebellar neurons in brain sections; assay: Immunoblot of phospho-eIF4E in mouse cerebellar brain slices; conditions: 40 μM CGP57380 or 50 nM ETC7168 for 45 mins
Description: For biochemical analyses mice were sacrificed by CO2 inhalation, the cerebellum dissected and rapidly placed in a vibratome chamber and sectioned at 300 μm in cold oxygenated aCSF (in mM: 125 NaCl, 2.5 KCl, 1 MgCl2, 2 CaCl2, 1.25 NaH2PO4, 20 Glucose, 26 NaHCO3, 95% O2/5% CO2). Slices obtained were maintained at 33° C. in oxygenated aCSF and treated with 40 μM CGP57380 or 50 nM ETC7168 for 45 mins and tissues were subsequently snap frozen in liquid nitrogen. Tissues were lysed in 25 mM Tris-HCl, 150 mM NaCl, 1% Triton, 0.2% SDS, 5 mM EDTA, 2 mM DTT, 1 mM NaF, 1 mM Na3VO4 containing protease inhibitor cocktail. The soluble fractions were analyzed by immunoblotting with primary antibodies for 24 hrs at 4° C. followed by detection with secondary antibodies for enhanced chemoluminescent detection. […] Behavioral testing was performed using a well-accepted test for autism that consists of quantitative analysis of ultrasonic vocalizations emitted by male mice exposed to females in estrous^75. […] Prior to testing, the estrous cycle of each female mouse was assessed and only females in estrous were kept for testing. […] Subsequently a female in estrous was introduced in the arena, and ultrasonic vocalizations were recorded for 3 min using the Avisoft system (Avisoft Bioacoustics) with a frequency bandwidth of 30 kHz to 100 kHz. The number and length of ultrasonic vocalizations were quantified. […]

[7] = test system: CD34+BC cells (including those carrying T315I mutation); conditions: background; cited from earlier work
[8] = test system: eIF4G levels in brain sections from Nlgn3 knock-out mice; assay: Immunoblot of eIF4G in brain slices of Nlgn3 knock-out mice; design: species or system mouse; conditions: 40 μM CGP57380 or 50 nM ETC7168
Description: For biochemical analyses mice were sacrificed by CO2 inhalation, the cerebellum dissected and rapidly placed in a vibratome chamber and sectioned at 300 μm in cold oxygenated aCSF (in mM: 125 NaCl, 2.5 KCl, 1 MgCl2, 2 CaCl2, 1.25 NaH2PO4, 20 Glucose, 26 NaHCO3, 95% O2/5% CO2). Slices obtained were maintained at 33° C. in oxygenated aCSF and treated with 40 μM CGP57380 or 50 nM ETC7168 for 45 mins and tissues were subsequently snap frozen in liquid nitrogen. Tissues were lysed in 25 mM Tris-HCl, 150 mM NaCl, 1% Triton, 0.2% SDS, 5 mM EDTA, 2 mM DTT, 1 mM NaF, 1 mM Na3VO4 containing protease inhibitor cocktail. The soluble fractions were analyzed by immunoblotting with primary antibodies for 24 hrs at 4° C. followed by detection with secondary antibodies for enhanced chemoluminescent detection. Impact of MNK inhibitors on autism-related behavior was tested in a knock-out mouse model for autism. Nlgn3 knock-out mouse model a human mutation identified in patients with autism^73-74. Compounds were applied in DMSO using intraperitoneal injection in adult male mice (2-4 months of age). Two injections were performed, the first 30 h and a second one 5 h before testing. Behavioral testing was performed using a well-accepted test for autism that consists of quantitative analysis of ultrasonic vocalizations emitted by male mice exposed to females in estrous^75. The apparatus consisted of an arena (40 cm×20 cm) surrounded by 30-cm-high walls made of grey plastic and equipped with a microphone and a video camera. Prior to testing, the estrous cycle of each female mouse was assessed and only females in estrous were kept for testing. Male mice were acclimatized for 3 min in the chamber. Subsequently a female in estrous was introduced in the arena, and ultrasonic vocalizations were recorded for 3 min using the Avisoft system (Avisoft Bioacoustics) with a frequency bandwidth of 30 kHz to 100 kHz. The number and length of ultrasonic vocalizations were quantified. All animal experiments were approved by the cantonal veterinary office Basel-Stadt, Switzerland.

normal CD34+ cells = conditions: background; cited from earlier work
[9] = test system: eIF4E phosphorylation in BC GMPs; conditions: background; cited from earlier work
BC CD34+ CML cells = conditions: background; cited from earlier work
[10] = test system: nuclear active beta-catenin in BC-CML primary cells; assay: Immunofluorescence of nuclear active beta-catenin in BC-CML primary cells; type: cell-based, human
From the text: Cord Blood (CB) samples were purchased from the Singapore Cord Blood bank. CML samples were the Singapore General Hospital after signed informed consent under local IRB-approved procedures. MNCs were obtained using Ficoll separation, and CD34^+ cells selected by immunomagnetic beads (Miltenyi Biotech, Germany).
Cells (1×10^5) were cytospun onto glass slides, fixed with 4% paraformaldehye, and stained with mouse monoclonal antibodies against activated β-catenin (clone 8E7, Millipore, UK), or rabbit monoclonal antibodies against phospho-eIF4E S209 (EP2151Y, Abcam, UK). Slides were then stained with either PE-conjugated anti-mouse or FITC-conjugated anti-rabbit antibodies. Images were obtained with the use of a fluorescence microscope (Olympus IX71S1F3) at 40× magnification.

[11] = test system: MV-4-11, P116.c139 and D1.1 cell lines; assay: Cell cytotoxicity assay, the three test cell lines taken together; type: cell-based
Description: (§1) Cancer cell lines, MV-4-11 (leukemia), P116.c139 (acute T cell leukemia) and D1.1 (acute T cell leukemia), were purchased from ATCC and cultured according to supplier's recommendations. K562 cells (myelogenous leukemia) over-expressing eIF4E, were also used for the cytotoxicity assay. For cells treated for 48 hours, 5000 cells were seeded in 70 μl of growth medium in black, flat-bottom 96-well plate. For cells treated for six days, 1000 cells were seeded in 70 μl of growth medium in black, flat-bottom 96-well plate. […] 50 μl of the diluted compounds was added to the cells and incubated at 37° C. in 5% CO2. After 48 hours or six days treatment, cell viability was determined by CellTiter-Glo Luminescent Cell Viability Assay (Promega, Madison, Wis.). 120 μl of the reagent was added to the cells and luminescence was measured using Tecan Safire Reader. Data was analysed with Graphpad Prism software and the figures represented indicate the half maximal inhibitory concentration (IC50). Error bars denote standard deviation (SD).

BCR-ABL = target: T1, BCR-ABL (Homo sapiens, UniProt P00519); assay: Western blot of CrK1 phosphorylation (BCR-ABL activity) in K562 cells; type: cell-based
T1 construct: host or cells: K562; the other entry of the earlier key: BCR (P11274, Breakpoint cluster region protein)
T1 sequence (P00519 with tags, fused parts or gaps): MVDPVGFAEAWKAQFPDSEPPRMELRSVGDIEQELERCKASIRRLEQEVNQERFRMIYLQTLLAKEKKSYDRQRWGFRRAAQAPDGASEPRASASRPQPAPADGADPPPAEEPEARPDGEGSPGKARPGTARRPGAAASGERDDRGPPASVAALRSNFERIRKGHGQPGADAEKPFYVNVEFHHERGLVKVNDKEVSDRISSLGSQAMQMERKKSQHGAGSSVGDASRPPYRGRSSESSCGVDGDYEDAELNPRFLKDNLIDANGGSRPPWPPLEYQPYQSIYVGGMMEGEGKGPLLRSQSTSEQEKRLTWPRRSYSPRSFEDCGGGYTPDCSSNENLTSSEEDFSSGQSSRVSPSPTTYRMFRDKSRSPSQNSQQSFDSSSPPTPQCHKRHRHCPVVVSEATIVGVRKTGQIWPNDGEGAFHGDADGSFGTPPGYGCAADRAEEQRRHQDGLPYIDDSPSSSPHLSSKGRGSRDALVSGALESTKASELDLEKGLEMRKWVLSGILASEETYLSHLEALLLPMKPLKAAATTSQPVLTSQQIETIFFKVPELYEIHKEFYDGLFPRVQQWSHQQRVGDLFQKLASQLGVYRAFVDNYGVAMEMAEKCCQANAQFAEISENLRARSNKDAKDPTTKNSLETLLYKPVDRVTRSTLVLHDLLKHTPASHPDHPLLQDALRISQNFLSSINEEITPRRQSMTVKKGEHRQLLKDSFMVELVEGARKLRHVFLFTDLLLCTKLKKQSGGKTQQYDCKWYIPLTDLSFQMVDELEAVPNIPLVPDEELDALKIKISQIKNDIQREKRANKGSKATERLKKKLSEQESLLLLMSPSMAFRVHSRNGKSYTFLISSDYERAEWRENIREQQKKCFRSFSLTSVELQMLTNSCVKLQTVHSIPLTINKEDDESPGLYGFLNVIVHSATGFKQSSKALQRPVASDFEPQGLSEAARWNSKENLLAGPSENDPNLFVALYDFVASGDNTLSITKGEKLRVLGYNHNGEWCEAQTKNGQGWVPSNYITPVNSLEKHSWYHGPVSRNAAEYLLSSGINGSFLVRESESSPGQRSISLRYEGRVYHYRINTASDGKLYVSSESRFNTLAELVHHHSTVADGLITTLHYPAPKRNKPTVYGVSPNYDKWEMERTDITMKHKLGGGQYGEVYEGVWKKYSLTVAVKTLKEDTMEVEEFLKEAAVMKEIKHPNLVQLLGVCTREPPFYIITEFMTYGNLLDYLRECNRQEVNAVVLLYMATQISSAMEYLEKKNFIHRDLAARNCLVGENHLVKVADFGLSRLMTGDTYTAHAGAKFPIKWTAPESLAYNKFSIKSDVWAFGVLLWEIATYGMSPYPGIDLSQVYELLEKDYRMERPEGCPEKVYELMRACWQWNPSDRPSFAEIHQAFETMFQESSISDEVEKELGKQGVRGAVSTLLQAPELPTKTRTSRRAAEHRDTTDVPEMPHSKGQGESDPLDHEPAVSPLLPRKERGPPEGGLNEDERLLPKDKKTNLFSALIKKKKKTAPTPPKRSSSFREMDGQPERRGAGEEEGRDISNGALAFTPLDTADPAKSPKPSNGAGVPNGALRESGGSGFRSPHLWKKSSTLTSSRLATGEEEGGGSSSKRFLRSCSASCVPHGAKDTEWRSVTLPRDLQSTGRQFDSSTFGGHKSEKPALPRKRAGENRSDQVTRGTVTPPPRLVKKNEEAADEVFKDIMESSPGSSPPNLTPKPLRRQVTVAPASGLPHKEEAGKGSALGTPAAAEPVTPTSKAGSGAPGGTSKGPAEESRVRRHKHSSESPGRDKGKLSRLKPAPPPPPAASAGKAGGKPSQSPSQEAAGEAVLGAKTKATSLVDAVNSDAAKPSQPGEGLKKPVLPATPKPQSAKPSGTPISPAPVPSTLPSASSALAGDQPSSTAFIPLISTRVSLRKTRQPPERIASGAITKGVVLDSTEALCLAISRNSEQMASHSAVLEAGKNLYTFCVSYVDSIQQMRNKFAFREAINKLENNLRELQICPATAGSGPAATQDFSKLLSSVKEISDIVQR
Description: (§2) K562 cell line was obtained from the ATCC, and grown in RPMI supplemented with 10% FCS, L-glutamine, and penicillin/streptomycin.
(§3) Exponentially growing cells were plated at 2×10^5 cells/ml, and whole cell lysate processed for western blot analysis using antibodies recognizing eIF4E, phospho-eIF4E (Cell signaling Technology),

[12] = test system: K562 cells (myelogenous leukemia) over-expressing eIF4E; assay: Cell cytotoxicity assay (CellTiter-Glo), K562; type: cell-based; conditions: for IC50: Homo sapiens, cell viability
Description: as §1

[13] = test system: D1.1 (acute T cell leukemia); assay: Cell cytotoxicity assay (CellTiter-Glo), D1.1; type: cell-based; conditions: T-cell, cell viability
Description: as §1

[14] = test system: P116.c139 (acute T cell leukemia); assay: Cell cytotoxicity assay (CellTiter-Glo), P116.c139; type: cell-based; conditions: T-cell, cell viability
Description: as §1

[15] = test system: eIF4E Ser209 phosphorylation in Hela cells; assay: MNK cell-based assay (AlphaScreen SureFire, eIF4E Ser209 phosphorylation); conditions: Homo sapiens; eIF4E Ser209 phosphorylation, Hela cells, 2 hours; read-out: IC50 Hela
Procedure, shortened: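 Hela cells (30,000/well) exposed to test compound in serum-free medium for 2 h at 37 °C, then lysed. Phospho-Ser209 eIF4E quantified by AlphaScreen SureFire; IC50 obtained by non-linear regression of signal versus log compound concentration.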

[16] = test system: eIF4E phosphorylation in K562 cells; assay: Western blot of eIF4E phosphorylation in K562 cells; type: cell-based; conditions: various concentrations, 24 h
Description: as §2, §3

MV-4-11 (leukemia) = assay: Cell cytotoxicity assay (CellTiter-Glo), MV-4-11; type: cell-based; conditions: Homo sapiens, cell viability
Description: as §1

## CC[n+]1c(/C=C/N(C)c2ccccc2)n(-c2ccccc2)c2ccc(-c3nc4ccccc4s3)cc21.[I-] [AKT inhibitor IV]
[1]
  eIF4E-mediated increases in beta-catenin transcriptional activity: prevented eIF4E-mediated increases in beta-catenin transcriptional activity

## Nc1ncnc2n[nH]c(Nc3ccc(F)cc3)c12 [CGP57380]
[2]
  serial transplantation of BC cells in NSG mice after in vivo treatment: prevented BC cells from serially transplanting NSG mice
[3]
  accumulation of active nuclear beta-catenin in BC GMPs: prevents accumulation of active nuclear beta-catenin
[4]
  ability of normal cord blood CD34+ cells to engraft NSG mice after in vitro treatment: not
[5]
  TNF production / release by macrophage: inhibited; also recorded: inhibits the release of TNF alpha
[6]
  eIF4E phosphorylation in cerebellar brain sections: inhibit eIF4E phosphorylation
[7]
  ability of CD34+ BC cells to serially replate for more than 8 weeks in methylcellulose: impaired the ability
[8]
  eIF4G levels in brain sections from Nlgn3 knock-out mice: elevation in eIF4G levels; also recorded: elevated eIF4G levels
Normal CD34+ cells
  ability of normal CD34+ cells to serially replate: not
[9]
  eIF4E phosphorylation in BC GMPs: inhibited eIF4E phosphorylation
BC CD34+ CML cells
  ability of BC CD34+ CML cells to engraft NSG mice after in vitro treatment: retarded their ability to engraft NSG mice

## CN1CCN(C(=O)c2ccc(-c3ccn4ncc(-c5ccc(C#N)cc5)c4n3)cc2)CC1 [Example 176, 4-(5-(4-(4-methylpiperazine-1-carbonyl)phenyl)pyrazolo[1,5-a]pyrimidin-3-yl)benzonitrile]
[10]
  nuclear active beta-catenin in BC-CML primary cells, immunofluorescence: decrease in nuclear beta-catenin accumulation
[11]
  relative cytotoxicity amongst the four compounds: most cytotoxic
[11]; Homo sapiens, MV4-11, regardless of the treatment duration (48 hours or 6 days)
  IC50: ≤ 1 µM
BCR-ABL
  BCR-ABL activity (phosphorylation of CrK1) in K562 cells: decrease in BCR-ABL activity
[12]; K562, 144 h, 6 days, read-out: IC50 after 6 days of treatment, K562
  IC50: 3.4 µM
[12]; K562, 48 hours, read-out: IC50 after 48 hours of treatment, K562
  IC50: 14.2 µM
[12]; K562 cells over-expressing eIF4E
  change of IC50 when treatment duration was extended from 48 hours to 6 days, K562: reduced by more than half
[13]; 144 h, 6 days, read-out: IC50 after 6 days of treatment, D1.1
  IC50: 0.8 µM
[13]; 48 hours, read-out: IC50 after 48 hours of treatment, D1.1
  IC50: 1 µM
[14]; 144 h, 6 days, read-out: IC50 after 6 days of treatment, P116.c139
  IC50: 0.1 µM
[14]; 48 hours, read-out: IC50 after 48 hours of treatment, P116.c139
  IC50: 0.4 µM
[15]
  IC50: < 1 µM
[16]
  eIF4E phosphorylation in K562 (BC-CML cell line), Western blot: prevent eIF4E phosphorylation; also recorded: decrease in eIF4E phosphorylation
MV-4-11 (leukemia); MV4-11, 144 h, 6 days, read-out: IC50 after 6 days of treatment, MV-4-11
  IC50: 0.4 µM
MV-4-11 (leukemia); MV4-11, 48 hours, read-out: IC50 after 48 hours of treatment, MV-4-11
  IC50: 1 µM

## Cc1nc(Nc2ncc(C(=O)Nc3c(C)cccc3Cl)s2)cc(N2CCN(CCO)CC2)n1 [dasatinib]
[2]
  serial transplantation of BC cells in NSG mice after in vivo treatment: not
[3]
  accumulation of active nuclear beta-catenin in BC GMPs: not
[7]
  ability of CD34+ BC cells to serially replate for more than 8 weeks in methylcellulose: only partially impaired
[9]
  eIF4E phosphorylation in BC GMPs: not
